From the supplement of paper PMC4862054

Key:
HCC1599 = experiment: normalised response (% of control), CellTox Green; higher = less cell death (100 = DMSO, 0 = benzethonium chloride kill control); details: incubation time: 72 h
Method in brief: (§1)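 Normalised signals at single concentrations make up the values. They come from breast cancer cell lines seeded (20 µl suspension) into 384-well plates with compound at 5 concentrations in 10-fold steps over a compound-specific 10,000-fold range, incubated 72 h, and read for CellTox Green fluorescence then CellTiter-Glo luminescence. Each plate was normalised to 0.1 % DMSO (100) and a positive kill control (0).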

CAL-148 = experiment: as above; details: incubation time: 72 h
Method in brief: as §1

COc1ccc(S(=O)(=O)Nc2cccnc2Nc2ccc(O)cc2)cc1 [ABT-751] (1000 nM)
normalised response (HCC1599): 87.8%

CCNC(=O)CCC/C=C\C[C@@H]1[C@@H](/C=C/[C@@H](O)CCc2ccccc2)[C@H](O)C[C@@H]1O [Bimatoprost] (5500 nM)
normalised response (CAL-148): 100% | normalised response (HCC1599): 102%

CO[C@@]12[C@H](COC(N)=O)C3=C(C(=O)C(C)=C(N)C3=O)N1C[C@@H]1N[C@@H]12 [Mitomycin C] (10000 nM)
normalised response (CAL-148): 42.2% | normalised response (HCC1599): 99.1%

CC(C)(C)NC(=O)[C@H]1CC[C@H]2[C@@H]3CC[C@H]4NC(=O)C=C[C@]4(C)[C@H]3CC[C@]12C [Finasteride] (1000 nM)
normalised response (CAL-148): 104% | normalised response (HCC1599): 100%

Cc1cn(-c2cc(NC(=O)c3ccc(C)c(Nc4nccc(-c5cccnc5)n4)c3)cc(C(F)(F)F)c2)cn1 [Nilotinib] (10000 nM)
normalised response (CAL-148): 98.3% | normalised response (HCC1599): 105%

O=C(CCCCCCC(=O)Nc1ccccc1)NO [Vorinostat] (10000 nM)
normalised response (CAL-148): 45.5% | normalised response (HCC1599): 81.9%

CC(C)C[C@H](NC(=O)[C@@H](COC(C)(C)C)NC(=O)[C@H](Cc1ccc(O)cc1)NC(=O)[C@H](CO)NC(=O)[C@H](Cc1c[nH]c2ccccc12)NC(=O)[C@H](Cc1cnc[nH]1)NC(=O)[C@@H]1CCC(=O)N1)C(=O)N[C@@H](CCCNC(=N)N)C(=O)N1CCC[C@H]1C(=O)NNC(N)=O [Goserelin] (10000 nM)
normalised response (CAL-148): 104% | normalised response (HCC1599): 95.5%

CC(O)(CS(=O)(=O)c1ccc(F)cc1)C(=O)Nc1ccc(C#N)c(C(F)(F)F)c1 (stereo not given) [Bicalutamide] (1000 nM)
normalised response (CAL-148): 87.8% | normalised response (HCC1599): 101%

CO[C@@]12[C@H](COC(N)=O)C3=C(C(=O)C(C)=C(N)C3=O)N1C[C@@H]1N[C@@H]12 [Mitomycin C] (1000 nM)
normalised response (CAL-148): 97.8% | normalised response (HCC1599): 98.1%

CCNC(=O)c1noc(-c2cc(C(C)C)c(O)cc2O)c1-c1ccc(CN2CCOCC2)cc1 [NVP-AUY922] (1000 nM)
normalised response (CAL-148): 42.9% | normalised response (HCC1599): 97.9%

O=C(CCCCCCC(=O)Nc1ccccc1)NO [Vorinostat] (1000 nM)
normalised response (CAL-148): 100% | normalised response (HCC1599): 91.8%

C/C(=C\c1csc(C)n1)[C@@H]1C[C@@H]2O[C@]2(C)CCC[C@H](C)[C@H](O)[C@@H](C)C(=O)C(C)(C)[C@@H](O)CC(=O)N1 [Ixabepilone] (100 nM)
normalised response (CAL-148): 102% | normalised response (HCC1599): 102%

CNC(=O)c1ccccc1Sc1ccc2c(/C=C/c3ccccn3)n[nH]c2c1 [Axitinib] (10000 nM)
normalised response (CAL-148): 22.8% | normalised response (HCC1599): 118%

CC(=O)[C@]1(O)Cc2c(O)c3c(c(O)c2[C@@H](O[C@H]2C[C@H](N)[C@H](O)[C@H](C)O2)C1)C(=O)c1ccccc1C3=O [Idarubicin] (100 nM)
normalised response (CAL-148): 36% | normalised response (HCC1599): 101%

C=CCn1c(=O)c2cnc(Nc3ccc(N4CCN(C)CC4)cc3)nc2n1-c1cccc(C(C)(C)O)n1 [MK1775] (1000 nM)
normalised response (CAL-148): -11.1% | normalised response (HCC1599): 67.4%

COc1cc(Nc2c(C#N)cnc3cc(OCCCN4CCN(C)CC4)c(OC)cc23)c(Cl)cc1Cl [Bosutinib] (10000 nM)
normalised response (CAL-148): 49% | normalised response (HCC1599): 62%

Cc1cn(-c2cc(NC(=O)c3ccc(C)c(Nc4nccc(-c5cccnc5)n4)c3)cc(C(F)(F)F)c2)cn1 [Nilotinib] (1000 nM)
normalised response (CAL-148): 106% | normalised response (HCC1599): 101%

CNC(=O)c1ccccc1Sc1ccc2c(/C=C/c3ccccn3)n[nH]c2c1 [Axitinib] (1000 nM)
normalised response (CAL-148): 108% | normalised response (HCC1599): 118%

CC1(C)CCC(c2ccc(Cl)cc2)=C(CN2CCN(c3ccc(C(=O)NS(=O)(=O)c4ccc(N[C@H](CCN5CCOCC5)CSc5ccccc5)c(S(=O)(=O)C(F)(F)F)c4)cc3)CC2)C1 [Navitoclax] (10000 nM)
normalised response (CAL-148): 74.6% | normalised response (HCC1599): 103%

CO[C@@H]1[C@H](N(C)C(=O)c2ccccc2)C[C@H]2O[C@]1(C)n1c3ccccc3c3c4c(c5c6ccccc6n2c5c31)C(=O)NC4 [Midostaurin] (10000 nM)
normalised response (CAL-148): 66.4% | normalised response (HCC1599): 81.2%

C=CCn1c(=O)c2cnc(Nc3ccc(N4CCN(C)CC4)cc3)nc2n1-c1cccc(C(C)(C)O)n1 [MK1775] (10000 nM)
normalised response (CAL-148): 22.7% | normalised response (HCC1599): 66.1%

CC(C)C[C@H](NC(=O)[C@@H](COC(C)(C)C)NC(=O)[C@H](Cc1ccc(O)cc1)NC(=O)[C@H](CO)NC(=O)[C@H](Cc1c[nH]c2ccccc12)NC(=O)[C@H](Cc1cnc[nH]1)NC(=O)[C@@H]1CCC(=O)N1)C(=O)N[C@@H](CCCNC(=N)N)C(=O)N1CCC[C@H]1C(=O)NNC(N)=O [Goserelin] (1000 nM)
normalised response (CAL-148): 102% | normalised response (HCC1599): 98.4%

Nc1ccn([C@@H]2O[C@H](CO)[C@@H](O)C2(F)F)c(=O)n1 [Gemcitabine] (100 nM)
normalised response (CAL-148): 48.3% | normalised response (HCC1599): 87.5%

Nc1ccn([C@@H]2O[C@H](CO)[C@@H](O)C2(F)F)c(=O)n1 [Gemcitabine] (1000 nM)
normalised response (CAL-148): 61.1% | normalised response (HCC1599): 86.5%

CCNC(=O)CCC/C=C\C[C@@H]1[C@@H](/C=C/[C@@H](O)CCc2ccccc2)[C@H](O)C[C@@H]1O [Bimatoprost] (550 nM)
normalised response (CAL-148): 104% | normalised response (HCC1599): 97.1%

CC(=O)[C@]1(O)Cc2c(O)c3c(c(O)c2[C@@H](O[C@H]2C[C@H](N)[C@H](O)[C@H](C)O2)C1)C(=O)c1ccccc1C3=O [Idarubicin] (1000 nM)
normalised response (CAL-148): 28.9% | normalised response (HCC1599): 109%

COc1cc(Nc2c(C#N)cnc3cc(OCCCN4CCN(C)CC4)c(OC)cc23)c(Cl)cc1Cl [Bosutinib] (1000 nM)
normalised response (CAL-148): 92.5% | normalised response (HCC1599): 100%

Cn1cc(C2=C(c3cn(C4CCN(Cc5ccccn5)CC4)c4ccccc34)C(=O)NC2=O)c2ccccc21 [Enzastaurin] (10000 nM)
normalised response (CAL-148): 105% | normalised response (HCC1599): 120%

Cn1cc(C2=C(c3cn(C4CCN(Cc5ccccn5)CC4)c4ccccc34)C(=O)NC2=O)c2ccccc21 [Enzastaurin] (1000 nM)
normalised response (CAL-148): 60% | normalised response (HCC1599): 102%

COc1ccc(S(=O)(=O)Nc2cccnc2Nc2ccc(O)cc2)cc1 [ABT-751] (10000 nM)
normalised response (CAL-148): 81.8% | normalised response (HCC1599): 74.5%

CCNC(=O)c1noc(-c2cc(C(C)C)c(O)cc2O)c1-c1ccc(CN2CCOCC2)cc1 [NVP-AUY922] (100 nM)
normalised response (CAL-148): 21.6% | normalised response (HCC1599): 86.9%

CC1(C)CCC(c2ccc(Cl)cc2)=C(CN2CCN(c3ccc(C(=O)NS(=O)(=O)c4ccc(N[C@H](CCN5CCOCC5)CSc5ccccc5)c(S(=O)(=O)C(F)(F)F)c4)cc3)CC2)C1 [Navitoclax] (1000 nM)
normalised response (CAL-148): 71.7% | normalised response (HCC1599): 89.8%

CC(C)(C)NC(=O)[C@H]1CC[C@H]2[C@@H]3CC[C@H]4NC(=O)C=C[C@]4(C)[C@H]3CC[C@]12C [Finasteride] (10000 nM)
normalised response (CAL-148): 103% | normalised response (HCC1599): 97.7%

Cc1cc(Nc2nc(N[C@@H](C)c3ncc(F)cn3)ncc2Cl)[nH]n1 [AZD1480] (1000 nM)
normalised response (CAL-148): 85.8% | normalised response (HCC1599): 99.3%

CC(O)(CS(=O)(=O)c1ccc(F)cc1)C(=O)Nc1ccc(C#N)c(C(F)(F)F)c1 (stereo not given) [Bicalutamide] (10000 nM)
normalised response (CAL-148): 105% | normalised response (HCC1599): 91.5%

C/C(=C\c1csc(C)n1)[C@@H]1C[C@@H]2O[C@]2(C)CCC[C@H](C)[C@H](O)[C@@H](C)C(=O)C(C)(C)[C@@H](O)CC(=O)N1 [Ixabepilone] (1000 nM)
normalised response (CAL-148): 100% | normalised response (HCC1599): 104%

CO[C@@H]1[C@H](N(C)C(=O)c2ccccc2)C[C@H]2O[C@]1(C)n1c3ccccc3c3c4c(c5c6ccccc6n2c5c31)C(=O)NC4 [Midostaurin] (1000 nM)
normalised response (CAL-148): 67.4% | normalised response (HCC1599): 74%

Cc1cc(Nc2nc(N[C@@H](C)c3ncc(F)cn3)ncc2Cl)[nH]n1 [AZD1480] (100 nM)
normalised response (CAL-148): 99% | normalised response (HCC1599): 93.8%
